≈ marks a conversion by molar mass, not a printed value.
Assays:
[1] = Solubility (shaking flask); type: physicochemical; details: thermodynamic from solid, 37° C. for 24 hours
Experimental: The solubility for certain compounds were determined using the following protocol and procedure. 1) The solution, sterile water or phosphate buffer solution (PBS), was added to the test compound tube to make the final concentration 10 mg/mL. 2) The sample tube was vortexed and incubated at 37° C. for 24 hours. During the incubation period, the sample tube was vortexed several times. 3) After the incubation, vortex the tube and centrifuge the tube at 13,000 rpm for 10 mins using an Eppendorf Centrifuge Model 5415C. If the solution was still cloudy, centrifuge it for longer until a clear supernatant was achieved. 4) The supernatant was diluted to 1×, 10× and 100× in 50% ACN in water. 5) A six point standard curve was prepared separately to make the final concentrations of 1 μg/mL, 5 μg/mL, 10 μg/mL, 20 μg/mL, 40 μg/mL and 60 μg/mL. 6) Samples were quantified using an HPLC with UV detector. 7) From the three concentrations of 1×, 10× and 100× supernatant, choose the value, which was fallen into the standard curve range (1 ug/mL-60 ug/mL), as the final result. If all the results were out of the curve range, adjust using a dilution factor to make the value within the curve range.

Caco-2 cells = assay: in vitro; type: in vitro ADME
Experimental: Caco-2 cells were maintained in Dulbecco's Modification of Eagle's Medium (DMEM) with sodium pyruvate, Glutmax supplemented with 1% Pen/Strep, 1% NEAA and 10% fetal bovine serum in an incubator set at 37° C., 90% humidity and 5% CO2. Caco-2 cells between passage 43 and 61 were grown to confluence over at least 21-days on 24 well PET (polyethylene-terephthalate) plates (BD Biosciences). Experiments were run using a new HBSS donor buffer from Invitrogen containing additional 10 mM HEPES, 15 mM Glucose with pH adjusted to pH 6.5. The receiver well used HBSS buffer supplemented with 1% BSA and the pH adjusted to pH 7.4. After an initial equilibration with transport buffer, TEER values were read to test membrane integrity. The experiment was started by the addition of buffers containing test compounds and 100 μl of solution is taken at 1 and 2 hrs from the receiver compartment. Removed buffer was replaced with fresh buffer and a correction was applied to all calculations for the removed material. Each compound was tested in 2 separate replicate wells for each condition. All samples were immediately collected into 400 μl 100% acetonitrile acid to precipitate protein and stabilize test compounds. Cells were dosed on the apical or basolateral side to determine forward (A to B) and reverse (B to A) permeability. Permeability through a cell free trans-well was also determined as a measure of cellular permeability through the membrane and non-specific binding. To test for non-specific binding and compound instability the total amount of drug was quantitated at the end of the experiment and compared to the material present in the original dosing solution as a percent recovery. Samples were analyzed by LC/MS/MS.
The apparent permeability, Papp, and % recovery were calculated as follows: […]
where, • dR/dt is the slope of the cumulative concentration in the receiver compartment versus time in μM/s based on receiver concentrations measured at 60 and 120 minute. • Vr and Vd is the volume in the receiver and donor compartment in cm^3, respectively. • A is the area of the cell monolayer (0.33 cm^2). • D0 and D120 is the measured donor concentration at the beginning and end of the experiment, respectively. • R120 is the receiver concentration at the end of the experiment (120 minutes).
The apparent permeability for certain compounds were determined using the above procedure.

[2] = Chemical stability in acidic solution (acid stability); type: physicochemical; details: pH 4.5 chemical solution; pH 4.5, 37° C.; read-out: Acid Stability (T ½, mins @ pH 4.5)
[3] = phosphate buffer solution (PBS), aqueous buffer, PBS

Row | Compound | solubility at 24 h [1, 3] [µg/mL] | Permeability Papp (A to B) × 10^−6 cm/s (Caco-2 A-B) (Caco-2 cells) | half-life at 1 µg/mL [2] [h] | solubility at 24 h ([1]; sterile water, water) [µg/mL]
1 | CCCCCC(=O)OC[C@H]1O[C@@H](n2cc3c4c(ncnc42)NC(=O)C=C3N)[C@@](C)(O)[C@@H]1OC(=O)CCCCC (stereo in doubt) [Compound 102, Hexanoic acid 5-(9-amino-7-oxo-6,7-dihydro-2,3,5,6-tetraaza-benzo[cd]azulen-2-yl)-3-hexanoyloxy-4-hydroxy-4-methyl-tetrahydro-furan-2-ylmethyl ester] | 11 (≈ 20.2 µM) | high | – | –
2 | CC(=O)OC[C@H]1O[C@@H](n2cc3c4c(ncnc42)NC(=O)C=C3N)[C@@](C)(O)[C@@H]1O (stereo in doubt) [Compound 107, Acetic acid 5-(9-amino-7-oxo-6,7-dihydro-2,3,5,6-tetraaza-benzo[cd]azulen-2-yl)-3,4-dihydroxy-4-methyl-tetrahydro-furan-2-ylmethylester] | 9150 (≈ 23500 µM) | low | – | –
3 | CC(=O)O[C@@H]1[C@@H](CO)O[C@@H](n2cc3c4c(ncnc42)NC(=O)C=C3N)C1(C)O (stereo in doubt) [Compound 114, Acetic acid 5-(9-amino-7-oxo-6,7-dihydro-2,3,5,6-tetraaza-benzo[cd]azulen-2-yl)-4-hydroxy-2-hydroxymethyl-4-methyl-tetrahydro-furan-3-yl ester] | 2950 (≈ 7580 µM) | medium | – | –
4 | CC(C)C(=O)OC[C@H]1O[C@@H](n2cc3c4c(ncnc42)NC(=O)C=C3N)C(C)(OC(=O)C(C)C)[C@@H]1OC(=O)C(C)C (some centres unmarked) [Compound 132, Isobutyric acid 5-(9-amino-7-oxo-6,7-dihydro-2,3,5,6-tetraaza-benzo[cd]azulen-2-yl)-3,4-bis-isobutyryloxy-4-methyl-tetrahydro-furan-2-ylmethyl ester] | 44 (≈ 78.9 µM) | – | – | –
5 | CCCCCOC(=O)OC[C@H]1O[C@@H](n2cc3c4c(ncnc42)NC(=O)C=C3N)[C@@](C)(O)[C@@H]1O (stereo in doubt) [Compound 103, Carbonic acid 5-(9-amino-7-oxo-6,7-dihydro-2,3,5,6-tetraaza-benzo[cd]azulen-2-yl)-3,4-dihydroxy-4-methyl-tetrahydro-furan-2-ylmethylester pentyl ester] | – | low | ≤ 0.5 | –
6 | CC(=O)O[C@@H]1[C@@H](CO)O[C@@H](n2cc3c4c(ncnc42)NC(=O)C=C3NC(=O)OCOC(=O)C(C)C)[C@]1(C)O [Compound 112, Isobutyric acid 2-(4-acetoxy-3-hydroxy-5-hydroxymethyl-3-methyl-tetrahydro-furan-2-yl)-7-oxo-6,7-dihydro-2H-2,3,5,6-tetraaza-benzo[cd]azulen-9-ylcarbamoyloxymethyl ester] | 80 (≈ 150 µM) | – | – | –
7 | CC(C)C(=O)OCOC(=O)NC1=CC(=O)Nc2ncnc3c2c1cn3[C@@H]1O[C@H](COC(=O)C(C)C)[C@@H](O)C1(C)O (some centres unmarked) [Compound 129, Isobutyric acid 3,4-dihydroxy-5-(9-isobutyryloxymethoxycarbonyl-amino-7-oxo-6,7-dihydro-2,3,5,6-tetraaza-benzo[cd]azulen-2-yl)-4-methyl-tetrahydro-furan-2-ylmethylester] | – | – | > 2 | 120 (≈ 214 µM)
8 | CCC(=O)OC[C@H]1O[C@@H](n2cc3c4c(ncnc42)NC(=O)C=C3N)C(C)(O)[C@@H]1O (stereo in doubt) [Compound 131, Propionic acid 5-(9-amino-7-oxo-6,7-dihydro-2,3,5,6-tetraaza-benzo[cd]azulen-2-yl)-3,4-dihydroxy-4-methyl-tetrahydro-furan-2-ylmethylester] | 8060 (≈ 20000 µM) | – | – | –
9 | CC(=O)OC[C@H]1O[C@@H](n2cc3c4c(ncnc42)NC(=O)C=C3NC(=O)OCOC(=O)C(C)C)C(C)(O)[C@@H]1OC(C)=O (stereo in doubt) [Compound 118, Isobutyric acid 2-(4-acetoxy-5-acetoxymethyl-3-hydroxy-3-methyl-tetrahydro-furan-2-yl)-7-oxo-6,7-dihydro-2H-2,3,5,6-tetraaza-benzo[cd]azulen-9-ylcarbamoyloxymethyl ester] | 60 (≈ 104 µM) | – | – | –

Source: patent US20090062223A1, “AMINO TRICYCLIC-NUCLEOSIDE COMPOUNDS, COMPOSITIONS, AND METHODS OF USE” (GENELABS TECHNOLOGIES, INC., priority 2007, published 2009)
